From article PMC10112504, “Novel 4-thiophenyl-pyrazole, pyridine, and pyrimidine derivatives as potential antitumor candidates targeting both EGFR and VEGFR-2; design, synthesis, biological evaluations, and in silico studies” (RSC Advances, 2023)

How the values were obtained:
C. albicans = experiment: Antifungal activity, inhibition zone approach; assay type: cell-based, Candida albicans; conditions: for C. albicans Diameter of inhibition zone (mm): Fungi; for antimicrobial activity with C. albicans, in words: authors' grading of Table 2 values, key not given; for C. albicans % Activity index: ketoconazole = 100
E. coli = experiment: Antibacterial activity, inhibition zone approach; assay type: cell-based, Escherichia coli; conditions: for E. coli Diameter of inhibition zone (mm): Gram-negative bacteria; for antimicrobial activity with E. coli, in words: authors' grading of Table 2 values, key not given; for E. coli % Activity index: gentamicin = 100
HepG-2 [1] = experiment: Anti-proliferative activity, SRB colorimetric assay; assay type: cell-based; conditions: for IC50: Homo sapiens, HepG2, HepG-2 cancer cell line, SRB assay, read-out: Cell lines (IC50 μM) HepG-2; for anti-proliferative activity against HepG-2, in words: authors' grading of Table 1 values, key not given
MCF-7 = experiment: as above; assay type: cell-based; conditions: for IC50: Homo sapiens, MCF7, MCF-7 cancer cell line, SRB assay, read-out: Cell lines (IC50 μM) MCF-7; for anti-proliferative activity against MCF-7, in words: authors' grading of Table 1 values, key not given
VEGFR-2 = VEGFR-2 (Homo sapiens, UniProt P35968); experiment: VEGFR-2 inhibitory activity, homogeneous luminescence release assay; assay type: biochemical; conditions: reference sorafenib; read-out: VEGFR-2 inhibition IC50
Description: […]. Briefly, these μM inhibitory concentrations recommend greatly the proposed rationale design for the investigated compounds to act as promising dual EGFR/VEGFR-2 inhibitors.

S. aureus = experiment: Antibacterial activity, inhibition zone approach; assay type: cell-based, Staphylococcus aureus; conditions: for S. aureus Diameter of inhibition zone (mm): Gram-positive bacteria; for antimicrobial activity with S. aureus, in words: authors' grading of Table 2 values, key not given; for S. aureus % Activity index: gentamicin = 100
A. flavus = experiment: Antifungal activity, inhibition zone approach; assay type: cell-based, Aspergillus flavus; conditions: for A. flavus Diameter of inhibition zone (mm): Fungi; for antimicrobial activity with A. flavus, in words: authors' grading of Table 2 values, key not given; for A. flavus % Activity index: ketoconazole = 100
P. aeuroginosa = experiment: Antibacterial activity, inhibition zone approach; assay type: cell-based, Pseudomonas aeuroginosa; conditions: for P. aeuroginosa Diameter of inhibition zone (mm): Gram-negative bacteria; for antimicrobial activity with P. aeuroginosa, in words: authors' grading of Table 2 values, key not given; for P. aeuroginosa % Activity index: gentamicin = 100
EGFR = EGFR (Homo sapiens, UniProt P00533); experiment: EGFR inhibitory activity, homogeneous luminescence release assay; assay type: biochemical; conditions: reference erlotinib; read-out: EGFR inhibition IC50
B. subtilis = experiment: Antibacterial activity, inhibition zone approach; assay type: cell-based, Bacillus subtilis; conditions: for B. subtilis Diameter of inhibition zone (mm): Gram-positive bacteria; for antimicrobial activity with B. subtilis, in words: authors' grading of Table 2 values, key not given; for B. subtilis % Activity index: gentamicin = 100
HepG2 = experiment: Cell cycle analysis by flow cytometry; assay type: cell-based; conditions: HepG2 treated with 10b at 13.81 μM; control 36.19%
HepG-2 [2] = experiment: Apoptosis analysis, FITC Annexin-V/PI kit; assay type: cell-based; conditions: HepG-2 treated with 10b at 13.81 μM
Description: This was accompanied by significant elevations in the percentage of the AnxV-FITC apoptotic cells in both the early (from 0.36 to 14.52%) and late (from 0.21 to 24.45%) apoptotic phases, compared to the control (Fig. 5 and 6). Accordingly, we can confirm the exact mechanism of the anticancer activity of 10b to be due to the programmed apoptosis pathway.
This was done using the FITC Annexin-V/PI kit.[49]

Chain of VEGFR-2 (P35968 20-1356): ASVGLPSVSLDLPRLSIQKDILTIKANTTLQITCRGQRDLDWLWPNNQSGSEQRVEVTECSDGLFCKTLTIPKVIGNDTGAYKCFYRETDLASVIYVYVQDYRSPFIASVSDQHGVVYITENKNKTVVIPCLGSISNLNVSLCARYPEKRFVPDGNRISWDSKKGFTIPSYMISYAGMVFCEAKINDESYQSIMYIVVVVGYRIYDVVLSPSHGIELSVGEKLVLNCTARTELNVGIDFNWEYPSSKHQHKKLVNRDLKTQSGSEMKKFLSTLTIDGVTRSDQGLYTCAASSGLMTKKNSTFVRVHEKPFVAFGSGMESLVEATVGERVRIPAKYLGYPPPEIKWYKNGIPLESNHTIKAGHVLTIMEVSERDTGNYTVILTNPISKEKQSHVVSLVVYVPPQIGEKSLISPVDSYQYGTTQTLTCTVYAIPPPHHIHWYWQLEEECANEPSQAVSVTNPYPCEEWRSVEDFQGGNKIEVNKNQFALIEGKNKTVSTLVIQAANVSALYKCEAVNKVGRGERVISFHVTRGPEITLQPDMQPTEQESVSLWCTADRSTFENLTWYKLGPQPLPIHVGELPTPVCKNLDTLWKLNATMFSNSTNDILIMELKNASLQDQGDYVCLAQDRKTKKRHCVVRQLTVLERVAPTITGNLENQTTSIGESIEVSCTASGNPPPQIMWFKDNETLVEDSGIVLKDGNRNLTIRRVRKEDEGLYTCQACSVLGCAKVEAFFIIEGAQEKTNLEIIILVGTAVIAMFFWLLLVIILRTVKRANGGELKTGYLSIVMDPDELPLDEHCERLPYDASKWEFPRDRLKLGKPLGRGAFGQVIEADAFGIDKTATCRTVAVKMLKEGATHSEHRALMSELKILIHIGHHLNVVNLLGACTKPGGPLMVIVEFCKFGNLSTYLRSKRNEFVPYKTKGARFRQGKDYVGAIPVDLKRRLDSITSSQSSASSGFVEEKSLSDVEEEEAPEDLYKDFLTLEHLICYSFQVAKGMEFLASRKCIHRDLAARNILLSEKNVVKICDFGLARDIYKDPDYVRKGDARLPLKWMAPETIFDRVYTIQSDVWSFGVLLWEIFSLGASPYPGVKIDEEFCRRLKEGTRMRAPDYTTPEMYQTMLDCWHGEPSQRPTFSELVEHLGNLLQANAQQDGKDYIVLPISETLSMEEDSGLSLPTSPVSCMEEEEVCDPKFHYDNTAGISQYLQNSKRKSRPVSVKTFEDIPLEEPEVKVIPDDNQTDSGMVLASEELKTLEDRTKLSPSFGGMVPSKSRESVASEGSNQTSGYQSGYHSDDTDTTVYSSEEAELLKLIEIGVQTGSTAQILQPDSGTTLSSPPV
Chain of EGFR (P00533 25-1210): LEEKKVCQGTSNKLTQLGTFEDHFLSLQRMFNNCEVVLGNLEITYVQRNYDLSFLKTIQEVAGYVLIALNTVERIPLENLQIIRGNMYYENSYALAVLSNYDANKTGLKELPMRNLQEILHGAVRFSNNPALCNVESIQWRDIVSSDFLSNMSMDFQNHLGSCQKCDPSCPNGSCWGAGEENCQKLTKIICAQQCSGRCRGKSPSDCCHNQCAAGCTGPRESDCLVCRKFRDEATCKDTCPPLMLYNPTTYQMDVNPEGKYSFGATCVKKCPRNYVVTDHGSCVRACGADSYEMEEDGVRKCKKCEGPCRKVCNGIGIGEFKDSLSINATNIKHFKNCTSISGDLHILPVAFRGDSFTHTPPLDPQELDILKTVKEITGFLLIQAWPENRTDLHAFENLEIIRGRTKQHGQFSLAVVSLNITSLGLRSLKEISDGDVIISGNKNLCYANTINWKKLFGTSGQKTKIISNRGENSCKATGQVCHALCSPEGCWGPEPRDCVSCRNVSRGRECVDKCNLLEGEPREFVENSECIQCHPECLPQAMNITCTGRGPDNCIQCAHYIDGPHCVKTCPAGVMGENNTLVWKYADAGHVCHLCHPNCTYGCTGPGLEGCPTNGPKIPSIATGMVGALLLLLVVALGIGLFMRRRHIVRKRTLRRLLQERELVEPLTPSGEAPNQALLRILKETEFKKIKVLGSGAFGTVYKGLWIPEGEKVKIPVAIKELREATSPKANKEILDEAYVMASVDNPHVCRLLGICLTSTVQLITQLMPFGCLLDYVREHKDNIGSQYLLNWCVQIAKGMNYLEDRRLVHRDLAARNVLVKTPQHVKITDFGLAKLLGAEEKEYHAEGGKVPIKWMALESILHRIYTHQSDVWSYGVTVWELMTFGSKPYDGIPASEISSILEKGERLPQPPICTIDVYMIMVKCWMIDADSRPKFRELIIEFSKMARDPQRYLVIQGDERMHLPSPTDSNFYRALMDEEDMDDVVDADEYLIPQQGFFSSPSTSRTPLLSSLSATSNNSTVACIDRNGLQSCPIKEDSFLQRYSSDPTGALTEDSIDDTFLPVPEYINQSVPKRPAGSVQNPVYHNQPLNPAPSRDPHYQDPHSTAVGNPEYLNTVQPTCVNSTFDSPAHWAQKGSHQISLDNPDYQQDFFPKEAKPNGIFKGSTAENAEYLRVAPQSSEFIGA

SMILES	C. albicans Diameter of inhibition zone (mm) (C. albicans)	antimicrobial activity with C. albicans, in words (C. albicans)	C. albicans % Activity index (C. albicans) [%]	E. coli Diameter of inhibition zone (mm) (E. coli)	antimicrobial activity with E. coli, in words (E. coli)	E. coli % Activity index (E. coli) [%]	IC50 (HepG-2 [1]) [µM]	anti-proliferative activity against HepG-2, in words (HepG-2 [1])	IC50 (MCF-7) [µM]	anti-proliferative activity against MCF-7, in words (MCF-7)	IC50 (VEGFR-2) [nM]	S. aureus Diameter of inhibition zone (mm) (S. aureus)	antimicrobial activity with S. aureus, in words (S. aureus)	S. aureus % Activity index (S. aureus) [%]	A. flavus Diameter of inhibition zone (mm) (A. flavus)	antimicrobial activity with A. flavus, in words (A. flavus)	A. flavus % Activity index (A. flavus) [%]	P. aeuroginosa Diameter of inhibition zone (mm) (P. aeuroginosa)	antimicrobial activity with P. aeuroginosa, in words (P. aeuroginosa)	P. aeuroginosa % Activity index (P. aeuroginosa) [%]	further results
Oc1ccc(C2=NNC(c3cccs3)C2)cc1 (stereo not shown) [7a, 4-(5-(thiophen-2-yl)-4,5-dihydro-1H-pyrazol-3-yl)phenol]	23	very strong	82.1	12	very strong	57.1	8.13 ± 0.6	very strong	3.54 ± 0.2	very strong	509	15	very strong	83.3	18	very strong	69.2	17	very strong	89.5	melting point: 100 to 102 °C; IC50 (EGFR): 266 nM; B. subtilis Diameter of inhibition zone (mm) (B. subtilis): 19 mm; antimicrobial activity with B. subtilis, in words (B. subtilis): very strong; B. subtilis % Activity index (B. subtilis): 86.4%
NC(=S)n1nc(-c2ccc(Cl)c(Cl)c2)cc1-c1cccs1 [10b, 3-(3,4-dichlorophenyl)-5-(thiophen-2-yl)-1H-pyrazole-1-carbothioamide]	20	very strong	71.4	9	moderate	42.8	13.8 ± 1.1	strong	23.2 ± 1.8	moderate	141	12	very strong	66.7	14	moderate	53.8	13	very strong	68.4	fold change of S phase population compared to control (HepG2): 1.37 fold; AnxV-FITC apoptotic cells, late apoptotic phase (HepG-2 [2]; control 0.21%): 24.45%; total apoptosis percentage (HepG-2 [2]; control 1.75): 44.26%; AnxV-FITC apoptotic cells, early apoptotic phase (HepG-2 [2]; control […]): 14.52%; IC50 (EGFR): 161 nM; B. subtilis Diameter of inhibition zone (mm) (B. subtilis): 17 mm; antimicrobial activity with B. subtilis, in words (B. subtilis): very strong; B. subtilis % Activity index (B. subtilis): 77.3%
CCOC(=O)CN1N=C(c2ccc(O)cc2)CC1c1cccs1 (stereo not shown) [15a, ethyl 2-(3-(4-hydroxyphenyl)-5-(thiophen-2-yl)-4,5-dihydro-1H-pyrazol-1-yl)acetate]	18	strong	64.3	9	moderate	42.8	21.4 ± 1.5	moderate	9.48 ± 0.7	very strong	1140	10	moderate	55.5	15	moderate	57.7	14	strong	73.7	melting point: 65 °C; IC50 (EGFR): 894 nM; B. subtilis Diameter of inhibition zone (mm) (B. subtilis): 15 mm; antimicrobial activity with B. subtilis, in words (B. subtilis): strong; B. subtilis % Activity index (B. subtilis): 68.2%
O=C(SC(=S)N1N=C(c2ccc(O)cc2)CC1c1cccs1)c1ccccc1 (stereo not shown) [18a, Benzoic 3-(4-hydroxyphenyl)-5-(thiophen-2-yl)-4,5-dihydro-1H-pyrazole-1-carbothioic thioanhydride]	20	very strong	71.4	10	moderate	47.6	12.9 ± 1	strong	6.92 ± 0.5	very strong	344	13	very strong	72.2	16	very strong	61.5	15	very strong	78.9	melting point: 240 °C; IC50 (EGFR): 436 nM; B. subtilis Diameter of inhibition zone (mm) (B. subtilis): 17 mm; antimicrobial activity with B. subtilis, in words (B. subtilis): very strong; B. subtilis % Activity index (B. subtilis): 77.3%
